Experiment [1] addresses T1, Tyrosinase from mushroom.
T1 construct: gene PPO3
The experiment can be described thus: dopachrome absorbance at […] nm. Format: biochemical. To be noted: 2 mM L-tyrosine, 0.1 M phosphate pH 6.5, 37 °C, 30 min, 150 U/mL enzyme; read-out: IC50 ± SD (μM) / Tyrosinase.

In experiment [2] the target is T1, Tyrosinase from mushroom. The experiment can be described thus: dopachrome absorbance at […] nm. Format: biochemical. To be noted: 2 mM L-tyrosine, 0.1 M phosphate pH 6.5, 37 °C, 30 min, 150 U/mL enzyme; read-out: IC50 ± SD (μM) / Tyrosinase. The source holds these as a separate data set.

Like-named read-outs stand apart in the source and are kept apart here. Some results are limits rather than exact numbers.

Turning to `CCOC(C)(C)CCc1c(O[C@@H]2O[C@H](CO)[C@@H](O)[C@H](O)[C@H]2O)ccc(C(=O)/C=C/c2ccc(O)cc2)c1O` [compound 7, 3′-(3-O-Ethyl-3-methylbutyl)-4′-O-β-D-glucopyranosyl-4,2′-dihydroxychalcone], the IC50 at Tyrosinase from mushroom [1] was found to be 33.3 ± 1.16 µM.

`CC(C)=CCC/C(C)=C/Cc1c(O[C@@H]2O[C@H](CO)[C@@H](O)[C@H](O)[C@H]2O)ccc(C(=O)/C=C/c2ccc(O)cc2)c1O` [compound 10, 4′-O-β-D-Glucopyranosyl xanthoangelol]: at Tyrosinase from mushroom [1], the IC50 is 71.7 ± 9.22 µM.

In the case of `CC(C)=CCC/C(C)=C/Cc1c(O)ccc(C(=O)/C=C/c2ccc(O)cc2)c1O` [compound 3, xanthoangelol], the IC50 at Tyrosinase from mushroom [1] is over 100 µM.

For the molecule `CC(C)(O)CCc1c(O[C@@H]2O[C@H](CO)[C@@H](O)[C@H](O)[C@H]2O)ccc(C(=O)/C=C/c2ccc(O)cc2)c1O` [compound 4, 3′-(3-Hydroxy-3-methylbutyl)-4′-O-β-D-glucopyranosyl-4,2′-dihydroxychalcone], on Tyrosinase from mushroom [1], the IC50 stood at 78.5 ± 3.13 µM.

On to `COc1ccc(C(=O)/C=C/c2ccc(O)cc2)c(O)c1CC=C(C)C` [compound 2, 4-hydroxyderricin], for which the IC50 on Tyrosinase from mushroom [2] is over 100 µM.

In the case of `CC(C)=CCc1c(O[C@@H]2O[C@H](CO)[C@@H](O)[C@H](O)[C@H]2O)ccc(C(=O)/C=C/c2ccc(O)cc2)c1O` [compound 6, 3′-(3-methyl-2-butenyl)-4′-O-β-D-glucopyranosyl-4,2′-dihydroxychalcone], at Tyrosinase from mushroom [1], the IC50 worked out at 43.1 ± 6.74 µM.

Take `COC(C)(C)CCc1c(O[C@@H]2O[C@H](CO)[C@@H](O)[C@H](O)[C@H]2O)ccc(C(=O)/C=C/c2ccc(O)cc2)c1O` [compound 5, 3′-(3-O-Methyl-3-methylbutyl)-4′-O-β-D-glucopyranosyl-4,2′-dihydroxychalcone]: at Tyrosinase from mushroom [1], the IC50 amounted to 28.7 ± 1.24 µM.

`CC(C)=CCc1c(O)ccc(C(=O)/C=C/c2ccc(O)cc2)c1O` [compound 1, isobavachalcone]: the IC50 on Tyrosinase from mushroom [1] was over 100 µM.

Source of the values: PMC8871312, “Effects of Microbial Transformation on the Biological Activities of Prenylated Chalcones from Angelica keiskei” (Foods, 2022).
